Experiments:
Menin-MLL = Menin-MLL (Homo sapiens (Human), UniProt O00255); assay: Determination of binding constants (Ki) to Menin-MLL (HTRF); settings: HTRF, 0.25 nM H-FL-Menin, 3.2 nM FITC-MLL-4-43, 24 hr incubation; for Ki: read-out: Menin-MLL Ki HTRF Assay: Ki
hERG = hERG (Homo sapiens (Human), UniProt Q12809); assay: Patch clamp assay (hERG tail currents, whole-cell); format: cell-based; settings: hERG transfected HEK 293 cells; for hERG % Remaining 10 μM: 10 μM compound; for hERG % Remaining 30 μM: 30 μM compound; for hERG % Remaining 100 μM: 100 μM compound
Sequence of hERG (Q12809 whole entry): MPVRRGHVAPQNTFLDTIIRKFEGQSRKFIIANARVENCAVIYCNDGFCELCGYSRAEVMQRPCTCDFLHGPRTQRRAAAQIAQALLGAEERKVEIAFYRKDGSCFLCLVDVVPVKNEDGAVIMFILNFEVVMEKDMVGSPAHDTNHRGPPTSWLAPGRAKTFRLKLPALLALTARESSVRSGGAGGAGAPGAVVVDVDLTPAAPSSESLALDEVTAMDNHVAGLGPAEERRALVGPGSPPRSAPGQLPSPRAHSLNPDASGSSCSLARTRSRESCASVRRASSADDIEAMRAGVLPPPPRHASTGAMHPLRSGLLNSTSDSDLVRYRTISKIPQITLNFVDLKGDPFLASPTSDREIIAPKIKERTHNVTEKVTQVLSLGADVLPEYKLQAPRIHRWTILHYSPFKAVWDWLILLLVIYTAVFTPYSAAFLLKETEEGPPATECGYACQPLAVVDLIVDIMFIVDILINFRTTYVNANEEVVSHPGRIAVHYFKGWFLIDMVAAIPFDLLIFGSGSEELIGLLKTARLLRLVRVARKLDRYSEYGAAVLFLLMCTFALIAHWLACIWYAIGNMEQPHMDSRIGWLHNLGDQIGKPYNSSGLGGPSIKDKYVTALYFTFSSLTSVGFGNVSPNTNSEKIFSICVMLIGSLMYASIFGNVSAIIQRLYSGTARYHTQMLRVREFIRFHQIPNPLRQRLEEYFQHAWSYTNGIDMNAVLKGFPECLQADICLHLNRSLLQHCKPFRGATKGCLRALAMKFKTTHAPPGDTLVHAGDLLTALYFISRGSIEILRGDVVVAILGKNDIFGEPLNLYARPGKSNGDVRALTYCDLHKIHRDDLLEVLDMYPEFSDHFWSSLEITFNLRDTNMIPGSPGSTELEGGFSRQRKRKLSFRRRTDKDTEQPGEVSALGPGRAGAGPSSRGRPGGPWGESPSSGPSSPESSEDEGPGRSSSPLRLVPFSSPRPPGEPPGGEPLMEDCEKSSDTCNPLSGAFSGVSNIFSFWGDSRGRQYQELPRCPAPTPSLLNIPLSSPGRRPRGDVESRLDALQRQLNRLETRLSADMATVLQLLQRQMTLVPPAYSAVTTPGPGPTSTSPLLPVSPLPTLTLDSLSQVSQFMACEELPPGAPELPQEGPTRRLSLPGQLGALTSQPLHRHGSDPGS

Sequence of Menin-MLL (O00255 whole entry): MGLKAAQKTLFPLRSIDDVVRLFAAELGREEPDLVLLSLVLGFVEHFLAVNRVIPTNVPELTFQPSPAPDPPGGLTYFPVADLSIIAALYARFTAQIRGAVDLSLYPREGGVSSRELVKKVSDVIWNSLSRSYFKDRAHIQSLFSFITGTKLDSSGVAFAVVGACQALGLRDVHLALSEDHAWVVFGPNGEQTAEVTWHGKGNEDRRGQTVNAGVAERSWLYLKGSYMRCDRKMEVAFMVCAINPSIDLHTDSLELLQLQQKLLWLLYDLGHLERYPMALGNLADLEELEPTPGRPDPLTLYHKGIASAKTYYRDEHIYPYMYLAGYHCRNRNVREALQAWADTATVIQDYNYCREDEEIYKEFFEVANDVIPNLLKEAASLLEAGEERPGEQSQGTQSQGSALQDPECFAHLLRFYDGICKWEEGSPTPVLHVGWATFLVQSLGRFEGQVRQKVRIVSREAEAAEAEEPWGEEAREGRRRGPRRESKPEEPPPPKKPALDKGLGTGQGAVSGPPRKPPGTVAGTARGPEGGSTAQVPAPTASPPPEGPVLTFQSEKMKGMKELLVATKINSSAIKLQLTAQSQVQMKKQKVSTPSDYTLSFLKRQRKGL

Row | SMILES | Ki (Menin-MLL) [nM] | hERG % Remaining 10 μM (hERG) | hERG % Remaining 30 μM (hERG) | EC50 (Menin-MLL) [nM] | also measured
1 | CNS(=O)(=O)N[C@@H]1CC[C@@H](CN2CCC3(CC2)CN(c2ncncc2Oc2ccc(F)cc2C(=O)N(C(C)C)C2CC(F)(F)C2)C3)OC1 [Compound 154] | < 1 | +++ (“+++” means ≥66%) | ++ (“++” means ≥33% and <66%) | – | –
2 | CCN(C(=O)c1cc(F)ccc1Oc1cncnc1N1CC2(CCN(C[C@@H]3CC[C@@H](NS(=O)(=O)c4ccc(OC)cc4)CO3)CC2)C1)C(C)C [Compound 62, N-Ethyl-5-fluoro-N-isopropyl-2-((4-(7-(((2S,5R)-5-((4-methoxyphenyl)sulfonamido)tetrahydro-2H-pyran-2-yl)methyl)-2,7-diazaspiro[3.5]nonan-2-yl)pyrimidin-5-yl)oxy)benzamide] | < 1 | + (“+” means <33%) | + (“+” means <33%) | < 50 | –
3 | CCN(C(=O)c1cc(F)ccc1Oc1cncnc1N1CC2(CCN(C[C@@H]3CC[C@@H](NS(=O)(=O)c4cccnc4)CO3)CC2)C1)C(C)C [Compound 63, N-Ethyl-5-fluoro-N-isopropyl-2-((4-(7-(((2S,5R)-5-(pyridine-3-sulfonamido)tetrahydro-2H-pyran-2-yl)methyl)-2,7-diazaspiro[3.5]nonan-2-yl)pyrimidin-5-yl)oxy)benzamide] | < 1 | +++ (“+++” means ≥66%) | ++ (“++” means ≥33% and <66%) | < 50 | –
4 | CC(C)N(C(=O)c1cc(F)ccc1Oc1cncnc1N1CC2(CCN(C[C@@H]3CC[C@@H](NS(=O)(=O)C4CC4)CO3)CC2)C1)[C@H]1CCOC1 [Compound 176, 2-((4-(7-(((2S,5R)-5-(Cyclopropanesulfonamido)tetrahydro-2H-pyran-2-yl)methyl)-2,7-diazaspiro[3.5]nonan-2-yl)pyrimidin-5-yl)oxy)-5-fluoro-N-isopropyl-N-((S)-tetrahydrofuran-3-yl)benzamide] | < 1 | +++ (“+++” means ≥66%) | +++ (“+++” means ≥66%) | – | hERG % Remaining 100 μM (hERG): +++ (“+++” means ≥66%); IC50 (hERG; human, HEK 293 cells stably transfected with hERG): ≥ 50000 nM
5 | CCS(=O)(=O)N[C@@H]1CC[C@@H](CN2CCC3(CC2)CN(c2ncncc2Oc2ccc(F)cc2C(=O)N(C(C)C)C2CC(F)C2)C3)OC1 (stereo partly drawn) [Compound 244, 2-((4-(7-(((2S,5R)-5-(ethylsulfonamido)tetrahydro-2H-pyran-2-yl)methyl)-2,7-diazaspiro[3.5]nonan-2-yl)pyrimidin-5-yl)oxy)-5-fluoro-N-((1s,3s)-3-fluorocyclobutyl)-N-isopropylbenzamide] | – | +++ (“+++” means ≥66%) | ++ (“++” means ≥33% and <66%) | – | –
6 | CCN(C(=O)c1cc(F)ccc1Oc1cncnc1N1CC2(CCN(C[C@H]3CC[C@H](NS(=O)(=O)CC)CC3)CC2)C1)C(C)C [SNDX-5613] | – | ++ (“++” means ≥33% and <66%) | ++ (“++” means ≥33% and <66%) | – | hERG % Remaining 1 μM (hERG; 1 μM compound): +++ (“+++” means ≥66%); hERG % Remaining 3 μM (hERG; 3 μM compound): +++ (“+++” means ≥66%); hERG % Remaining 100 μM (hERG): + (“+” means <33%); IC50 (hERG): < 25000 nM
7 | CC(C)N(C(=O)c1cc(F)ccc1Oc1cncnc1N1CC2(CCN(C[C@@H]3CC[C@@H](NS(=O)(=O)N4CCC[C@@H]4C)CO3)CC2)C1)[C@@H]1CCOC1 [Compound 205, 5-Fluoro-N-isopropyl-2-((4-(7-(((2S,5R)-5-(((S)-2-methylpyrrolidine)-1-sulfonamido)tetrahydro-2H-pyran-2-yl)methyl)-2,7-diazaspiro[3.5]nonan-2-yl)pyrimidin-5-yl)oxy)-N-((R)-tetrahydrofuran-3-yl)benzamide] | < 1 | – | – | – | –
8 | CCN(C(=O)c1cc(F)ccc1Oc1cncnc1N1CC2(CCN(C[C@@H]3CC[C@@H](NS(=O)(=O)C4CCOC4)CO3)CC2)C1)C(C)C (stereo partly drawn) [Compound 10, N-ethyl-5-fluoro-N-isopropyl-2-((4-(7-(((2S,5R)-5-((tetrahydrofuran)-3-sulfonamido)tetrahydro-2H-pyran-2-yl)methyl)-2,7-diazaspiro[3.5]nonan-2-yl)pyrimidin-5-yl)oxy)benzamide] | < 1 | – | – | < 50 | –
9 | CCS(=O)(=O)N[C@@H]1CC[C@@H](CN2CCC3(CC2)CN(c2ncnnc2Oc2ccc(F)cc2C(=O)N(CC(F)F)C(C)C)C3)OC1 [Compound 185, N-(2,2-Difluoroethyl)-2-((5-(7-(((2S,5R)-5-(ethylsulfonamido)tetrahydro-2H-pyran-2-yl)methyl)-2,7-diazaspiro[3.5]nonan-2-yl)-1,2,4-triazin-6-yl)oxy)-5-fluoro-N-isopropylbenzamide] | < 1 | – | – | – | –
10 | CC(C)N(CC(F)(F)F)C(=O)c1cc(F)ccc1Oc1cncnc1N1CC2(CCN(C[C@@H]3CC[C@@H](NS(=O)(=O)C(C)C)CO3)CC2)C1 [Compound 109, 5-Fluoro-N-isopropyl-2-((4-(7-(((2S,5R)-5-((1-methylethyl)sulfonamido)tetrahydro-2H-pyran-2-yl)methyl)-2,7-diazaspiro[3.5]nonan-2-yl)pyrimidin-5-yl)oxy)-N-(2,2,2-trifluoroethyl)benzamide] | < 1 | – | – | < 50 | –
11 | CCS(=O)(=O)N[C@@H]1CC[C@@H](CN2CCC3(CC2)CN(c2ncncc2Oc2ccc(F)cc2C(=O)N(C(C)C)[C@@H]2CCOC2)C3)OC1 [Compound 46, 2-((4-(7-(((2S,5R)-5-(ethylsulfonamido)tetrahydro-2H-pyran-2-yl)methyl)-2,7-diazaspiro[3.5]nonan-2-yl)pyrimidin-5-yl)oxy)-5-fluoro-N-isopropyl-N-((R)-tetrahydrofuran-3-yl)benzamide] | < 1 | – | – | < 50 | –
12 | CCN(C(=O)c1cc(F)ccc1Oc1cncnc1N1CC2(CCN(C[C@@H]3CC[C@@H](NS(=O)(=O)CCOC)CO3)CC2)C1)C(C)C [Compound 8, N-ethyl-5-fluoro-N-isopropyl-2-((4-(7-(((2S,5R)-5-((2-methoxyethyl)sulfonamido)tetrahydro-2H-pyran-2-yl)methyl)-2,7-diazaspiro[3.5]nonan-2-yl)pyrimidin-5-yl)oxy)benzamide] | < 1 | – | – | < 50 | –
13 | C[C@@H]1COC[C@H](C)N1C(=O)c1cc(F)ccc1Oc1cncnc1N1CC2(CCN(C[C@@H]3CC[C@@H](NS(=O)(=O)NC4CC4)CO3)CC2)C1 [Compound 163, N-[(3R,6S)-6-{[2-(5-{2-[(3R,5S)-3,5-Dimethylmorpholine-4-carbonyl]-4-fluorophenoxy}pyrimidin-4-yl)-2,7-diazaspiro[3.5]nonan-7-yl]methyl}oxan-3-yl](cyclopropylamino)sulfonamide] | < 1 | – | – | – | –
14 | C[C@@H]1COC[C@H](C)N1C(=O)c1cc(F)ccc1Oc1cncnc1N1CC2(CCN(C[C@@H]3CC[C@@H](NS(=O)(=O)N(C)C)CO3)CC2)C1 [Compound 160, {[(3R,6S)-6-{[2-(5-{2-[(3R,5S)-3,5-Dimethylmorpholine-4-carbonyl]-4-fluorophenoxy}pyrimidin-4-yl)-2,7-diazaspiro[3.5]nonan-7-yl]methyl}oxan-3-yl]sulfamoyl}dimethylamine] | < 1 | – | – | – | –
15 | CCN(C(=O)c1cc(F)ccc1Oc1cncnc1N1CC2(CCN(C[C@@H]3CC[C@@H](NS(=O)(=O)c4ccc(C)cc4)CO3)CC2)C1)C(C)C [Compound 55, N-Ethyl-5-fluoro-N-isopropyl-2-((4-(7-(((2S,5R)-5-((4-methylphenyl)sulfonamido)tetrahydro-2H-pyran-2-yl)methyl)-2,7-diazaspiro[3.5]nonan-2-yl)pyrimidin-5-yl)oxy)benzamide] | < 1 | – | – | < 50 | –
16 | CC(C)S(=O)(=O)N[C@@H]1CC[C@@H](CN2CCC3(CC2)CN(c2ncncc2Oc2ccc(F)cc2C(=O)N2[C@H](C)COC[C@@H]2C)C3)OC1 [Compound 25, N-((3R,6S)-6-((2-(5-(2-((3S,5R)-3,5-dimethylmorpholine-4-carbonyl)-4-fluorophenoxy)pyrimidin-4-yl)-2,7-diazaspiro[3.5]nonan-7-yl)methyl)tetrahydro-2H-pyran-3-yl)propane-2-sulfonamide] | < 1 | – | – | < 50 | –
17 | COCCN(C(=O)c1cc(F)ccc1Oc1cncnc1N1CC2(CCN(C[C@@H]3CC[C@@H](NS(=O)(=O)c4ccccc4)CO3)CC2)C1)C(C)C [Compound 254, 5-Fluoro-N-isopropyl-N-(2-methoxyethyl)-2-((4-(7-(((2S,5R)-5-(phenylsulfonamido)tetrahydro-2H-pyran-2-yl)methyl)-2,7-diazaspiro[3.5]nonan-2-yl)pyrimidin-5-yl)oxy)benzamide] | < 1 | – | – | < 50 | –
18 | CCNS(=O)(=O)N[C@@H]1CC[C@@H](CN2CCC3(CC2)CN(c2ncncc2Oc2ccc(F)cc2C(=O)N(C(C)C)[C@H]2CCOC2)C3)OC1 [Compound 180, 2-((4-(7-(((2S,5R)-5-((N-Ethylsulfamoyl)amino)tetrahydro-2H-pyran-2-yl)methyl)-2,7-diazaspiro[3.5]nonan-2-yl)pyrimidin-5-yl)oxy)-5-fluoro-N-isopropyl-N-((S)-tetrahydrofuran-3-yl)benzamide] | < 1 | – | – | – | –
19 | COC[C@H]1CCCN1S(=O)(=O)N[C@@H]1CC[C@@H](CN2CCC3(CC2)CN(c2ncncc2Oc2ccc(F)cc2C(=O)N(C(C)C)C(C)C)C3)OC1 [Compound 212, 5-Fluoro-N,N-diisopropyl-2-((4-(7-(((2S,5R)-5-(((R)-2-(methoxymethyl)pyrrolidine)-1-sulfonamido)tetrahydro-2H-pyran-2-yl)methyl)-2,7-diazaspiro[3.5]nonan-2-yl)pyrimidin-5-yl)oxy)benzamide] | < 1 | – | – | – | –

— patent publication US11919901B2 (Syndax Pharmaceuticals, Inc., priority 2021, dated 2024)
